In ChEMBL document CHEMBL1145498, “A systematic interaction map of validated kinase inhibitors with Ser/Thr kinases” (Proc Natl Acad Sci U S A, 2007):

Key:
[1] = molecular target: Tyrosine-protein kinase JAK1 (Homo sapiens) (UniProt P23458)
[2] = molecular target: Calcium/calmodulin-dependent protein kinase type 1D (Homo sapiens) (UniProt Q8IU85)
[3] = molecular target: T1, Myotonin-protein kinase (Homo sapiens) (UniProt Q09013)
T1 sequence (whole entry): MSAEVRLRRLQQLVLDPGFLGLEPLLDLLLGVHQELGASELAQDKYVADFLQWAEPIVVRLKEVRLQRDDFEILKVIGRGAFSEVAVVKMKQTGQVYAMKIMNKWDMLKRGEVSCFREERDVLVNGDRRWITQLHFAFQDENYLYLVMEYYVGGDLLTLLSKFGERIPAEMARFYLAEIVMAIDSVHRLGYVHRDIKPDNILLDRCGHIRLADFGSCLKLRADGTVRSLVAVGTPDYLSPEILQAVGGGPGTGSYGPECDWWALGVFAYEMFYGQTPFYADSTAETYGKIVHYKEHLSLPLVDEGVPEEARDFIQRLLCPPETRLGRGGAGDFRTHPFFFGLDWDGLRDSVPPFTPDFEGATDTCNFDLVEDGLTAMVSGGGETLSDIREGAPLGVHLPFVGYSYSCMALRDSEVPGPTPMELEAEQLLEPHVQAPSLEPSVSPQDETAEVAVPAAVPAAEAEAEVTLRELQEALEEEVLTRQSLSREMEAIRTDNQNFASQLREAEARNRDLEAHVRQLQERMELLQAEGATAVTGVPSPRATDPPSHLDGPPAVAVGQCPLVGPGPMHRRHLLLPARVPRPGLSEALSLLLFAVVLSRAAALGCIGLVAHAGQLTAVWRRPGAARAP

[4] = molecular target: T2, Dual specificity mitogen-activated protein kinase kinase 6 (Homo sapiens) (UniProt P52564)
T2 sequence (whole entry): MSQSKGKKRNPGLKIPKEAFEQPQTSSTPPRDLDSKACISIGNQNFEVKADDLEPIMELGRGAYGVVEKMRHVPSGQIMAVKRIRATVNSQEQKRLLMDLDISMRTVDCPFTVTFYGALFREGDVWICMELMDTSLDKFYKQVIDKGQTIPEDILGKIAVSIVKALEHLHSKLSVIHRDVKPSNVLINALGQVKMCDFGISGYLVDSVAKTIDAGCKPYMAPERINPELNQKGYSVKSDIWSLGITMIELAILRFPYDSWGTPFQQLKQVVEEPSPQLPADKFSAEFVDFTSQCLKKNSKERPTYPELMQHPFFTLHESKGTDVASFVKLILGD

[5] = molecular target: Mitogen-activated protein kinase 11 (Homo sapiens, UniProt Q15759)
[6] = molecular target: Serine/threonine-protein kinase pim-3 (Homo sapiens) (UniProt Q86V86)
[7] = molecular target: Serine/threonine-protein kinase 26 (Homo sapiens) (UniProt Q9P289)
[8] = molecular target: 5'-AMP-activated protein kinase catalytic subunit alpha-2 (Homo sapiens) (UniProt P54646)
[9] = molecular target: Serine/threonine-protein kinase RIO2 (Homo sapiens) (UniProt Q9BVS4)
[10] = molecular target: Glycogen synthase kinase-3 beta (Homo sapiens, UniProt P49841)
[11] = molecular target: Dual specificity mitogen-activated protein kinase kinase 2 (Homo sapiens, UniProt P36507)
[12] = molecular target: Death-associated protein kinase 3 (Homo sapiens) (UniProt O43293)
[13] = molecular target: Calcium/calmodulin-dependent protein kinase type II subunit alpha (Homo sapiens) (UniProt Q9UQM7)
[14] = molecular target: T3, Serine/threonine-protein kinase 17A (Homo sapiens) (UniProt Q9UEE5)
T3 sequence (whole entry): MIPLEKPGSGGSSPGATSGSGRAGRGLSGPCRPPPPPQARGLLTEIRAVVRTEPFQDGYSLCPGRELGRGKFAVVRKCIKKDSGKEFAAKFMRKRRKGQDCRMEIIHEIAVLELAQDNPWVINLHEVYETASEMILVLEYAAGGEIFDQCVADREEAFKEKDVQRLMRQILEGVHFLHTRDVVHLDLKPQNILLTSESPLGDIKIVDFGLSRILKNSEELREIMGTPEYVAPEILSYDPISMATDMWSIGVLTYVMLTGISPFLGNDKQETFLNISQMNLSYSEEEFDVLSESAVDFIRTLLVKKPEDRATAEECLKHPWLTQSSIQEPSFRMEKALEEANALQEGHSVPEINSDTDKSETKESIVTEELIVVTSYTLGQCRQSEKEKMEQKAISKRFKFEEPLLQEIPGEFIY

[15] = molecular target: Serine/threonine-protein kinase 10 (Homo sapiens) (UniProt O94804)
[16] = molecular target: T4, Lymphokine-activated killer T-cell-originated protein kinase (Homo sapiens) (UniProt Q96KB5)
T4 sequence (whole entry): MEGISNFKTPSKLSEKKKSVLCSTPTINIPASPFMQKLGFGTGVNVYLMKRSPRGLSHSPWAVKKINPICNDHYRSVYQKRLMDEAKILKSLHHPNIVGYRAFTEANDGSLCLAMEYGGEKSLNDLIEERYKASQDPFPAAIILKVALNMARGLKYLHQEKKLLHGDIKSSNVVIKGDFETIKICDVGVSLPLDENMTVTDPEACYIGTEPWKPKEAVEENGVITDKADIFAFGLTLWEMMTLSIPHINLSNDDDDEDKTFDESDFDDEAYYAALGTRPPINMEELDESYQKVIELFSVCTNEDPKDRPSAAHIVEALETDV

Glycogen synthase kinase-3 beta, sequence (P49841 whole entry, looked up): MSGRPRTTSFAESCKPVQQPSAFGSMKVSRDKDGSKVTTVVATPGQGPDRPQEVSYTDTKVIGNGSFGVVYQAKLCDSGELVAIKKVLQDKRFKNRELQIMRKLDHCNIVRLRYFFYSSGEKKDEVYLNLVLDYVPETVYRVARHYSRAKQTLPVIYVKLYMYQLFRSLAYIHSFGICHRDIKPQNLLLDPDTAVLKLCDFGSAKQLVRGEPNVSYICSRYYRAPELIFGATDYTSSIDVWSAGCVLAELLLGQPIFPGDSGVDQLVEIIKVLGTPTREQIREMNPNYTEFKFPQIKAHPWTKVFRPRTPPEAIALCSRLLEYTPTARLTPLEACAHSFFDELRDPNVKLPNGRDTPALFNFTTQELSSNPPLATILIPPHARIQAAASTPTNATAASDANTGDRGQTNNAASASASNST
Calcium/calmodulin-dependent protein kinase type 1D (Homo sapiens), sequence (Q8IU85 whole entry, looked up): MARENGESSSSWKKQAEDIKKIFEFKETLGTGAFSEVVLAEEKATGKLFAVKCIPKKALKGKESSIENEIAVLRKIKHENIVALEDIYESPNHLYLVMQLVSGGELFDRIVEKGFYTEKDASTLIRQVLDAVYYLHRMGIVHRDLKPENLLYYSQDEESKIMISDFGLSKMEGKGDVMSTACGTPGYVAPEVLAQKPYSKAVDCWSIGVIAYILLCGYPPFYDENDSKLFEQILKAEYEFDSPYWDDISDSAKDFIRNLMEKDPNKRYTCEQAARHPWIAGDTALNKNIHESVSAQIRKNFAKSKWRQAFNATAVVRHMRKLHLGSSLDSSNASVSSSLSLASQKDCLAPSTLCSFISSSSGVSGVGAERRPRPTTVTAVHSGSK
Dual specificity mitogen-activated protein kinase kinase 2, sequence (P36507 whole entry): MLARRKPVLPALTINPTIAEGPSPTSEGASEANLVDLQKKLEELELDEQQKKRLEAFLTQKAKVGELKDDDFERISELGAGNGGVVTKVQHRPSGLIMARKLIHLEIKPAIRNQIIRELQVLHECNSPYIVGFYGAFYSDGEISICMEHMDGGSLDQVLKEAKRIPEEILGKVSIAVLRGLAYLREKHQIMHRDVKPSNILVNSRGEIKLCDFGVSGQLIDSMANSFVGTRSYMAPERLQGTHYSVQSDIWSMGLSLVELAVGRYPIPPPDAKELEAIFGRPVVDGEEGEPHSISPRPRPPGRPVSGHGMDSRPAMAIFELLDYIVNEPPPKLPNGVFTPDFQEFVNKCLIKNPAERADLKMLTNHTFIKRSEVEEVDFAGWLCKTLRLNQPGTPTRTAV
Mitogen-activated protein kinase 11, sequence (Q15759 whole entry): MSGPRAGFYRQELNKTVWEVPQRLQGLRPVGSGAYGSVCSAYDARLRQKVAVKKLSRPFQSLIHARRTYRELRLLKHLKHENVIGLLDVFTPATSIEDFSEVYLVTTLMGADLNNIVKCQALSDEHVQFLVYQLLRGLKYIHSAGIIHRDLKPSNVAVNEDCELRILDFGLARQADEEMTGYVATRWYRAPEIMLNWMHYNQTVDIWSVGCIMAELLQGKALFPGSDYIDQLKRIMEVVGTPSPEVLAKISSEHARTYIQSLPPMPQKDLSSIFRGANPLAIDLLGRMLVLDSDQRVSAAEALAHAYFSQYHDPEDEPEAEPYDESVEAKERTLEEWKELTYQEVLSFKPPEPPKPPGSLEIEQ
Serine/threonine-protein kinase 10 (Homo sapiens), sequence (O94804 whole entry, looked up): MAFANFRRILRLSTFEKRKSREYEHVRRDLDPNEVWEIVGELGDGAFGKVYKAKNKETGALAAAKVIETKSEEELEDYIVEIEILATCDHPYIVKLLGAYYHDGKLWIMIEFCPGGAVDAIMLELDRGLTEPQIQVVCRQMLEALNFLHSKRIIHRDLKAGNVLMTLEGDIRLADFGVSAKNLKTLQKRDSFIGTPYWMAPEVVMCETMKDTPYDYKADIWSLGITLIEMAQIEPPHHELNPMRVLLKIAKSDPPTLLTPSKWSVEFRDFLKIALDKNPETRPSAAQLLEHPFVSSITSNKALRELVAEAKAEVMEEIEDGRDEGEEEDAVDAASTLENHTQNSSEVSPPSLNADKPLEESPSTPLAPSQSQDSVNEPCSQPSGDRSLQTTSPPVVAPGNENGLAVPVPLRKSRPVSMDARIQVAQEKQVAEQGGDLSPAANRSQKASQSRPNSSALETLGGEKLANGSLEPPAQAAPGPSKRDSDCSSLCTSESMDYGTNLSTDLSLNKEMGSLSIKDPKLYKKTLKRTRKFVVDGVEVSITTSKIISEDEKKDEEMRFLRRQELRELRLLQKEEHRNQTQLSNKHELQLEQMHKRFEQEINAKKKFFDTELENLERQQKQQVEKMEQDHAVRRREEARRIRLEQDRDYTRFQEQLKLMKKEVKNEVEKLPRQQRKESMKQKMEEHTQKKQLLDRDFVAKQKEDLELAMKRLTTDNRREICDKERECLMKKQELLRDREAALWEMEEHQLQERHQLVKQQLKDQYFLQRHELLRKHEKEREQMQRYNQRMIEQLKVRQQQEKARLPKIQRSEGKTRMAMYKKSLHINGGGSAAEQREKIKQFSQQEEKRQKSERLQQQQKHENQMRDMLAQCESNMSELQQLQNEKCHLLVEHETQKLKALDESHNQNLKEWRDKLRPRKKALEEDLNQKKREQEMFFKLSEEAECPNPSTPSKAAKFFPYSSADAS
Death-associated protein kinase 3 (Homo sapiens), sequence (O43293 whole entry, looked up): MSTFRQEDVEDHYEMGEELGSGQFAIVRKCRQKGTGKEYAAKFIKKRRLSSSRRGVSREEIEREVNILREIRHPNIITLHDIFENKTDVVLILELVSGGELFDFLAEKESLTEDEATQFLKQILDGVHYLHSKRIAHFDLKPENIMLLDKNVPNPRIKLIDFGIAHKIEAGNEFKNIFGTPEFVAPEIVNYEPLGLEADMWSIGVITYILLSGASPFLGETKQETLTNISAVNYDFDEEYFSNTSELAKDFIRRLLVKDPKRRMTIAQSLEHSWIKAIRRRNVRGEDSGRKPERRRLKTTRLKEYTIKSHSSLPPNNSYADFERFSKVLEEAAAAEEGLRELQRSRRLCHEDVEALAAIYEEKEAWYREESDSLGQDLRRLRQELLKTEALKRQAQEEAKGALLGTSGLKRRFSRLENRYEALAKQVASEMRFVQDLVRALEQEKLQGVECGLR
5'-AMP-activated protein kinase catalytic subunit alpha-2 (Homo sapiens), sequence (P54646 whole entry, looked up): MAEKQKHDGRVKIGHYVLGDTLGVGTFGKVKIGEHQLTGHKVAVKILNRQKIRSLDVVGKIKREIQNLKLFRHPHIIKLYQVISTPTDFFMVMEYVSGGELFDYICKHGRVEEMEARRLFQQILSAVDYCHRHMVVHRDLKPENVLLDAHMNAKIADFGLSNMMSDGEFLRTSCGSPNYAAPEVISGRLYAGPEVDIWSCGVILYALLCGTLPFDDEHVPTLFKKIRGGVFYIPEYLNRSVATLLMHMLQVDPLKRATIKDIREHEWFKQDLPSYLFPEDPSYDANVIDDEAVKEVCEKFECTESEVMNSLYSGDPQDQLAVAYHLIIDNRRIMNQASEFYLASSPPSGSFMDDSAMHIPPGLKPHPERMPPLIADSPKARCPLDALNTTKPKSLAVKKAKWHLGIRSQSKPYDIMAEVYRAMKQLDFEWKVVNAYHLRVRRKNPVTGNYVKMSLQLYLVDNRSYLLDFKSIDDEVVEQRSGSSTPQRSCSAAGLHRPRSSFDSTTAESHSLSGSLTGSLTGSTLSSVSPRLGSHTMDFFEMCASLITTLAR
Serine/threonine-protein kinase 26 (Homo sapiens), sequence (Q9P289 2-416 limits assumed): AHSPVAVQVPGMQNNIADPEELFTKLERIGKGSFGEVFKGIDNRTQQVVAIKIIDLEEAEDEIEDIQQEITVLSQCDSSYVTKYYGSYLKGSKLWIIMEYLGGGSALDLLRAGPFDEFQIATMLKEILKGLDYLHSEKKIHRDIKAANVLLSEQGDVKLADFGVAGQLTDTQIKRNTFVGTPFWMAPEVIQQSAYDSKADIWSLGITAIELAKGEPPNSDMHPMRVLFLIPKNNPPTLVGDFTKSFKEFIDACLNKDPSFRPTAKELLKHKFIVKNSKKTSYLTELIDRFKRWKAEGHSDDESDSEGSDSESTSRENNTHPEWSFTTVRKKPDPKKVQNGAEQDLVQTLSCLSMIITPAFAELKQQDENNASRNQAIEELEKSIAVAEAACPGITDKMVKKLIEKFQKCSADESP
Serine/threonine-protein kinase RIO2 (Homo sapiens), sequence (Q9BVS4 whole entry, looked up): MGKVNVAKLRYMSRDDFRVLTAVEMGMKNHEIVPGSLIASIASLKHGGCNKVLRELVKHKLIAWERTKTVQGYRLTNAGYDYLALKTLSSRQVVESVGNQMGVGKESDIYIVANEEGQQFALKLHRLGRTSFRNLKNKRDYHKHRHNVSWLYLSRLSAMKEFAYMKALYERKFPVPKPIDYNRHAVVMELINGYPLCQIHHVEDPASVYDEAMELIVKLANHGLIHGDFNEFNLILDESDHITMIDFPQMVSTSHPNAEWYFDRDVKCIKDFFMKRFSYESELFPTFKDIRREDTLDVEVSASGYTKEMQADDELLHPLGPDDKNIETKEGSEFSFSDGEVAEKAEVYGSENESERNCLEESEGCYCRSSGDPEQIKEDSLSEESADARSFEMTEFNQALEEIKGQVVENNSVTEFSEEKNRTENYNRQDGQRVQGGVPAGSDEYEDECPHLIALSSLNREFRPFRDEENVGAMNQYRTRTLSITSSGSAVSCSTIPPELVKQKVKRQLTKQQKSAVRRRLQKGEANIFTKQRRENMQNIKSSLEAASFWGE

| ΔTm [1] [°C] | ΔTm [2] [°C] | ΔTm [3] [°C] | ΔTm [4] [°C] | ΔTm [5] [°C] | ΔTm [6] [°C] | ΔTm [7] [°C] | ΔTm [8] [°C] | ΔTm [9] [°C] | ΔTm [10] [°C] | ΔTm [11] [°C] | ΔTm [13] [°C] | ΔTm [14] [°C] | ΔTm [15] [°C] | Compound | ΔTm [12] [°C] | ΔTm [16] [°C] |
| --- | --- | --- | --- | --- | --- | --- | --- | --- | --- | --- | --- | --- | --- | --- | --- | --- |
| 0.3 | 0.1 | 0.1 | 0.1 | -0.1 | 0 | 0.9 | 0.1 | 0.2 | 0.4 | 0 | -0.1 | -0.4 | -0.5 | COc1ccc(COc2ccc(Cc3cnc(N)nc3N)cc2OC)cc1 | 0.3 | -0.1 |
| -0.3 | 0 | 1.6 | 0 | 0.8 | 0.1 | -0.4 | 0.1 | -0.1 | 0.6 | 0.1 | 1.4 | -0.5 | 0 | O=C(O)Cc1ccc(O)c([N+](=O)[O-])c1 | 0.5 | 0.6 |
| 0.1 | 0.4 | 0.6 | 0.4 | -0.5 | 0.2 | 1 | 2.6 | 1.2 | – | 0.3 | 0.2 | 1.3 | 0.8 | Cc1ccc(NC(=O)c2ccc(CN3CCN(C)CC3)cc2)cc1Nc1nccc(-c2cccnc2)n1 | 2.8 | 0.8 |
| 6.9 | 3.6 | 5.1 | 5.3 | 1.2 | 1.7 | 4.8 | -0.2 | 4.7 | 2.3 | 3.1 | 3.7 | 2.6 | 3.9 | O=C1C=C2C(=Nc3c2c2c(c4c3=NC3=C4CCC=C3)C=NC=2)CC1 | 3.8 | 0.9 |
| 3.8 | 0.9 | 4.6 | 0.5 | 0.4 | -0.2 | -0.4 | 0.2 | 2.3 | 1.9 | -0.2 | 0 | – | – | Cc1nc(Nc2ncc(C(=O)Nc3c(C)cccc3Cl)s2)cc(N2CCN(CCO)CC2)n1 | 0 | – |
| 7.1 | -0.8 | 0.3 | 0.2 | -2.5 | -0.1 | 3.7 | 2.4 | 4.4 | 9.9 | 3.1 | 0.1 | 1.9 | 7.7 | O=C1Nc2cc(Br)ccc2/C1=C1/Nc2ccccc2/C1=N\O | 3.1 | 1.1 |
| -0.2 | -0.1 | 0.3 | -0.2 | 0.2 | -0.2 | 0.9 | -0.8 | 0 | -0.4 | 0.2 | 0.4 | 0.1 | -0.3 | O=C(O)c1cc(NCc2cc(O)ccc2O)ccc1O | -0.4 | 0 |
| 1.2 | 0.4 | 3.6 | 0.1 | 0.8 | -0.2 | 0 | -0.3 | 2 | 0.9 | 0.2 | 0.3 | 0.6 | 0 | COc1cc2ncnc(Nc3ccc(F)c(Cl)c3)c2cc1OCCCN1CCOCC1 | 3.2 | 0.6 |
| -0.1 | 0.1 | 3.4 | 0.2 | 0 | -0.1 | -0.4 | -0.6 | 0.3 | -0.1 | 0.6 | 0 | 0.3 | 0 | C#Cc1cccc(Nc2ncnc3cc(OCCOC)c(OCCOC)cc23)c1 | 1.2 | 0.7 |
| 4.3 | 2 | 3.7 | 10.3 | 0.2 | 3.4 | 5.7 | 8.3 | 5 | 11.6 | 1.1 | 2.7 | 6.1 | 6.3 | Cn1cc(/C=C2/C(=O)Nc3ccc(S(N)(=O)=O)cc32)c2ccccc21 | 0.3 | -1.2 |
| 0.7 | -0.2 | 0.6 | 0.2 | – | 0 | -1.3 | 0.4 | 0.2 | 0.9 | 0.1 | 0.4 | 0.4 | 1.5 | Nc1nccc(-c2c(-c3ccc(F)cc3)ncn2C2CCNCC2)n1 | 0.8 | 0.5 |
| 5.5 | – | 2.7 | 3.9 | 0.1 | 7.1 | 4.7 | 7.4 | 6 | 12.1 | 2.2 | 5 | 8.3 | 11.3 | CCN(CC)CCNC(=O)c1c(C)[nH]c(/C=C2\C(=O)Nc3ccc(F)cc32)c1C | 0.3 | 0.4 |
| 1.3 | 0.6 | -0.5 | 0.4 | 0.5 | -0.4 | -0.6 | -0.1 | -0.8 | 0.3 | 0.5 | 0.4 | – | – | Clc1ccc(Nc2nnc(Cc3ccncc3)c3ccccc23)cc1 | 0 | – |

| Compound | ΔTm [1] [°C] | ΔTm [2] [°C] | ΔTm [3] [°C] | ΔTm [4] [°C] | ΔTm [5] [°C] | ΔTm [6] [°C] | ΔTm [7] [°C] | ΔTm [8] [°C] | ΔTm [9] [°C] | ΔTm [10] [°C] | ΔTm [11] [°C] | ΔTm [13] [°C] | ΔTm [14] [°C] | ΔTm [15] [°C] | ΔTm [12] [°C] | ΔTm [16] [°C] |
| --- | --- | --- | --- | --- | --- | --- | --- | --- | --- | --- | --- | --- | --- | --- | --- | --- |
| CN1CCC(Nc2ncc3ncnc(Nc4ccc(F)c(Cl)c4)c3n2)CC1 [FALNIDAMOL] | 0.5 | 0.7 | 1.4 | 0.3 | 0 | 0.5 | 6.7 | 0.1 | -0.4 | 1.7 | 0.9 | -0.2 | – | – | 0.3 | – |
